Laboratory results as given in patent US20230278972A1, “SUBSTITUTED HALOALKYL SULFONANILIDE HERBICIDES” (FMC Corporation, priority 2020, published 2023).

Key:
Type in all cases: in vivo
kochia (Bassia scoparia) = experiment: Test A postemergence, kochia; conditions: Bassia scoparia, post-emergence, 240 h, Postemergence, 0 to 100 scale (0 no effect, 100 complete control), read-out: Plant response rating, Kochia
In short: (§1)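 Whole-plant herbicidal screen in pots of loam blended with sand. Sprays used a surfactant-containing, non-phytotoxic solvent vehicle. Timing was preemergence soil-directed at planting or postemergence at the one- to two-leaf stage (2–10 cm).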

corn (Zea mays) = experiment: Test A postemergence, corn; conditions: Zea mays, post-emergence, 240 h, Postemergence, 0 to 100 scale (0 no effect, 100 complete control)
In short: as §1

[1] = system: blackgrass (Alopecurus myosuroides); experiment: Test A postemergence, blackgrass; conditions: Alopecurus myosuroides, post-emergence, 240 h, Postemergence, 0 to 100 scale (0 no effect, 100 complete control), read-out: Plant response rating, Blackgrass
In short: as §1

[2] = system: galium (catchweed bedstraw, Galium aparine); experiment: Test A postemergence, galium; conditions: Galium, post-emergence, 240 h, Postemergence, 0 to 100 scale (0 no effect, 100 complete control), read-out: Plant response rating, Galium
In short: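 Greenhouse pot test in a loam–sand blend; compounds delivered in a non-phytotoxic solvent carrying a surfactant, applied either as a directed spray to soil at seeding or over seedlings 2 to 10 cm high with one to two leaves.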

[3] = 500 g ai/ha, visual injury approx. 10 days

Q: For Cc1cc(C)c(C(=O)N2CCC(F)(F)CC2)cc1NS(=O)(=O)C(F)(F)F [Compound 241, N-[5-[(4,4-Difluoro-1-piperidinyl)carbonyl]-2,4-dimethylphenyl]-1,1,1-trifluoromethanesulfonamide], which pest or weed control at 125 g/ha (kochia (Bassia scoparia); 125 g ai/ha) is on record?
A: 60%

Q: What about the pest or weed control at 500 g/ha (kochia (Bassia scoparia); [3]) of the same compound?
A: 90%

Q: What about the Corn plant response rating (crop injury, 0 = no effect, 100 = complete kill) at 125 g/ha (corn (Zea mays); 125 g ai/ha) of the same compound?
A: 10%

Q: What about the Corn plant response rating (crop injury, 0 = no effect, 100 = complete kill) at 500 g/ha (corn (Zea mays); [3]) of the same compound?
A: 20%

Q: What about the pest or weed control at 125 g/ha ([1]; 125 g ai/ha) of the same compound?
A: 0%

Q: What about the pest or weed control at 500 g/ha [1, 3] of the same compound?
A: 80%

Q: And the pest or weed control at 125 g/ha ([2]; 125 g ai/ha)?
A: 80%

Q: And the pest or weed control at 500 g/ha [2, 3]?
A: 90%
